Toxic doses and inconclusive results are not listed. Cut-off read from the data, not from the text of the source: active = T/C of 150% or more; inactive = T/C below 125%.
Test system: L1210 leukemia ip in BDF1 mice, survival T/C
Assay: NCI In Vivo Anticancer Drug Screen. Data for tumor model L1210 Leukemia (intraperitoneal) in B6D2F1 (BDF1) mice
Conditions: endpoint: mean survival time, higher = longer survival
Outline: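 Mice bearing the transplanted tumor received compound or vehicle. Survival of the treated group was divided by that of the vehicle-treated control group to give the ratio.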

[1] = dose: 100.0 mg/kg/injection, schedule: Q04DX002 (ip), vehicle: Klucel (hydroxypropylcellulose) (HPC)
[2] = dose: 200.0 mg/kg/injection, schedule: Q04DX002 (ip), vehicle: Klucel (hydroxypropylcellulose) (HPC)
[3] = dose: 400.0 mg/kg/injection, schedule: Q04DX002 (ip), vehicle: Klucel (hydroxypropylcellulose) (HPC)
[4] = dose: 100.0 mg/kg/injection, schedule: Q01DX009 (ip), vehicle: saline
[5] = dose: 200.0 mg/kg/injection, schedule: Q01DX009 (ip), vehicle: saline
[6] = dose: 400.0 mg/kg/injection, schedule: Q01DX009 (ip), vehicle: saline
[7] = dose: 100.0 mg/kg/injection, schedule: Q01DX009 (ip), vehicle: Klucel (hydroxypropylcellulose) (HPC)
[8] = dose: 100.0 mg/kg/injection, schedule: Q04DX003 (ip), vehicle: Klucel (hydroxypropylcellulose) (HPC)
[9] = dose: 200.0 mg/kg/injection, schedule: Q01DX009 (ip), vehicle: Klucel (hydroxypropylcellulose) (HPC)
[10] = dose: 200.0 mg/kg/injection, schedule: Q04DX003 (ip), vehicle: Klucel (hydroxypropylcellulose) (HPC)
[11] = dose: 400.0 mg/kg/injection, schedule: Q01DX009 (ip), vehicle: Klucel (hydroxypropylcellulose) (HPC)
[12] = dose: 400.0 mg/kg/injection, schedule: Q04DX003 (ip), vehicle: Klucel (hydroxypropylcellulose) (HPC)
[13] = dose: 100.0 mg/kg/injection, schedule: Q01DX001 (ip), vehicle: Klucel (hydroxypropylcellulose) (HPC)
[14] = dose: 200.0 mg/kg/injection, schedule: Q01DX001 (ip), vehicle: Klucel (hydroxypropylcellulose) (HPC)
[15] = dose: 400.0 mg/kg/injection, schedule: Q01DX001 (ip), vehicle: Klucel (hydroxypropylcellulose) (HPC)

Measured: T/C

COc1cccc(NC(=S)NN(C)C)c1
inactive: [1] 94 % of control | [2] 122 % of control | [3] 112 % of control

CN(C)c1cc(F)c(C=O)cc1[N+](=O)[O-]
inactive: [4] 100 % of control | dose: 100.0 mg/kg/injection, schedule: Q04DX003 (ip), vehicle: saline 113 % of control | [5] 105 % of control | dose: 200.0 mg/kg/injection, schedule: Q04DX003 (ip), vehicle: saline 105 % of control | [6] 100 % of control | dose: 400.0 mg/kg/injection, schedule: Q04DX003 (ip), vehicle: saline 98 % of control

Cc1cc(C(C)(C)CC(C)(C)C)ccc1O
inactive: dose: 100.0 mg/kg/injection, schedule: Q01DX009 (sc), vehicle: olive oil, sesame oil, peanut oil 100 % of control | dose: 100.0 mg/kg/injection, schedule: Q04DX003 (sc), vehicle: olive oil, sesame oil, peanut oil 110 % of control | dose: 200.0 mg/kg/injection, schedule: Q01DX009 (sc), vehicle: olive oil, sesame oil, peanut oil 100 % of control | dose: 200.0 mg/kg/injection, schedule: Q04DX003 (sc), vehicle: olive oil, sesame oil, peanut oil 101 % of control | dose: 400.0 mg/kg/injection, schedule: Q01DX009 (sc), vehicle: olive oil, sesame oil, peanut oil 96 % of control | dose: 400.0 mg/kg/injection, schedule: Q04DX003 (sc), vehicle: olive oil, sesame oil, peanut oil 105 % of control

O=c1[nH][nH]c(=O)c2nc3ccccc3nc12
inactive: [7] 97 % of control | [8] 94 % of control | [9] 100 % of control | [10] 97 % of control | [11] 93 % of control | [12] 92 % of control

C/C(Cl)=C1\CCCC\C1=N\NC(N)=O
inactive: [13] 95 % of control | [14] 98 % of control | [15] 102 % of control

Nc1nc2nc(N=Nc3ccc(N=Nc4nc5nc(N)[nH]c(=O)c5[nH]4)cc3)[nH]c2c(=O)[nH]1
inactive: [8] 91 % of control | [10] 99 % of control | [12] 88 % of control

OCC1OCOC2C(CO)OCOC12 (stereo not drawn)
inactive: dose: 25.6 mg/kg/injection, schedule: Q04DX002 (ip), vehicle: saline with Tween-80 104 % of control | dose: 64.0 mg/kg/injection, schedule: Q04DX002 (ip), vehicle: saline with Tween-80 101 % of control | dose: 160.0 mg/kg/injection, schedule: Q04DX002 (ip), vehicle: saline with Tween-80 101 % of control | dose: 400.0 mg/kg/injection, schedule: Q04DX002 (ip), vehicle: saline with Tween-80 96 % of control

CC(=O)NC1C(NC(=O)C(CC(=O)O)NC(=O)OCc2ccccc2)OC(COC(C)=O)C(OC(C)=O)C1OC(C)=O (stereo not drawn)
inactive: dose: 50.0 mg/kg/injection, schedule: Q04DX002 (ip), vehicle: Klucel (hydroxypropylcellulose) (HPC) 94 % of control | [1] 91 % of control

COC(=O)[C@]1(C)CCC[C@]2(C)c3ccc(C(C)C)cc3CC[C@@H]12
inactive: dose: 0.5 mg/kg/injection, schedule: Q01DX009 (ip), vehicle: Klucel (hydroxypropylcellulose) (HPC) 100 % of control | dose: 0.5 mg/kg/injection, schedule: Q04DX003 (ip), vehicle: Klucel (hydroxypropylcellulose) (HPC) 107 % of control | dose: 1.0 mg/kg/injection, schedule: Q01DX009 (ip), vehicle: Klucel (hydroxypropylcellulose) (HPC) 111 % of control | dose: 1.0 mg/kg/injection, schedule: Q04DX003 (ip), vehicle: Klucel (hydroxypropylcellulose) (HPC) 93 % of control | dose: 2.0 mg/kg/injection, schedule: Q01DX009 (ip), vehicle: Klucel (hydroxypropylcellulose) (HPC) 98 % of control | dose: 2.0 mg/kg/injection, schedule: Q04DX003 (ip), vehicle: Klucel (hydroxypropylcellulose) (HPC) 98 % of control | dose: 100.0 mg/kg/injection, schedule: Q04DX003 (ip), vehicle: saline with Tween-80 96 % of control | dose: 200.0 mg/kg/injection, schedule: Q04DX003 (ip), vehicle: saline with Tween-80 107 % of control | dose: 400.0 mg/kg/injection, schedule: Q04DX003 (ip), vehicle: saline with Tween-80 102 % of control

O=C1NC2(C=CC(Br)CC2)C(=O)C12CCCCC2 (stereo not drawn) (tested in a mixture with another compound)
inactive: dose: 150.0 mg/kg/injection, schedule: Q01DX001 (ip), vehicle: saline 94 % of control

N/C(=C\C(=O)Cl)C(=O)c1ccccc1
inactive: dose: 100.0 mg/kg/injection, schedule: Q01DX001 (ip), vehicle: saline with Tween-80 106 % of control | dose: 200.0 mg/kg/injection, schedule: Q01DX001 (ip), vehicle: saline with Tween-80 90 % of control | dose: 400.0 mg/kg/injection, schedule: Q01DX001 (ip), vehicle: saline with Tween-80 105 % of control

CCCCCCC(/C=C/C=C/c1ccccc1)=N\O
inactive: [8] 96 % of control | [9] 91 % of control | [10] 90 % of control | [11] 91 % of control | [12] 98 % of control

CCOC(=O)N/N=C/C(Br)=C\c1ccccc1
inactive: dose: 50.0 mg/kg/injection, schedule: Q01DX009 (ip), vehicle: saline with Tween-80 93 % of control | dose: 100.0 mg/kg/injection, schedule: Q04DX002 (ip), vehicle: saline with Tween-80 101 % of control | dose: 200.0 mg/kg/injection, schedule: Q01DX009 (ip), vehicle: saline with Tween-80 87 % of control | dose: 200.0 mg/kg/injection, schedule: Q04DX002 (ip), vehicle: saline with Tween-80 96 % of control

NOC(=O)C1C(c2ccccc2)C1(c1ccccc1)c1ccccc1 (stereo not drawn)
inactive: dose: 100.0 mg/kg/injection, schedule: Q01DX001 (ip), vehicle: steriod suspending solution 104 % of control | dose: 200.0 mg/kg/injection, schedule: Q01DX001 (ip), vehicle: steriod suspending solution 95 % of control | dose: 400.0 mg/kg/injection, schedule: Q01DX001 (ip), vehicle: steriod suspending solution 117 % of control

COc1cc2nc3cc([N+](=O)[O-])ccc3c(Cl)c2cc1OC
inactive: [7] 96 % of control | [8] 97 % of control | [9] 88 % of control | [10] 98 % of control | [12] 103 % of control

O=[N+]([O-])c1ccc([S][Pb]([c]2ccccc2)([c]2ccccc2)[c]2ccccc2)cc1
inactive: [1] 111 % of control | [2] 93 % of control

COC(=O)C1C2CC3C(OC(=O)C31)C2Br (stereo not drawn)
inactive: [13] 98 % of control | [7] 102 % of control | [8] 104 % of control | [14] 103 % of control | [9] 93 % of control | [10] 105 % of control | [15] 109 % of control | [11] 94 % of control | [12] 107 % of control

CC1CCC(C(C)C)C(NCc2cc(Br)cc(Br)c2O)C1 (stereo not drawn)
inactive: [8] 98 % of control | [10] 92 % of control | [12] 98 % of control

CCOC(=O)CNc1cccc(F)c1
inactive: [1] 101 % of control | [2] 108 % of control | [3] 105 % of control

O=C(Cn1cnc2c(=S)nc[nH]c21)Oc1ccc([N+](=O)[O-])cc1
inactive: dose: 100.0 mg/kg/injection, schedule: Q01DX009 (ip), vehicle: saline with Tween-80 98 % of control | [8] 96 % of control | [10] 105 % of control | [12] 94 % of control

COc1ccc2ncc(C)c(CO)c2c1
inactive: dose: 44.0 mg/kg/injection, schedule: Q01DX009 (ip), vehicle: Klucel (hydroxypropylcellulose) (HPC) 96 % of control | dose: 66.0 mg/kg/injection, schedule: Q01DX009 (ip), vehicle: Klucel (hydroxypropylcellulose) (HPC) 98 % of control | dose: 150.0 mg/kg/injection, schedule: Q01DX009 (ip), vehicle: Klucel (hydroxypropylcellulose) (HPC) 101 % of control | [9] 102 % of control | [11] 102 % of control

CCCCCCCCCCCCCCCCN(C(C)C)S(=O)(=O)c1ccc(Cl)c(N)c1
inactive: [4] 89 % of control | [8] 98 % of control | [5] 89 % of control | [10] 96 % of control | [6] 102 % of control | [12] 89 % of control

O=C(O)c1cc(=O)c2c(OCC(O)COc3cccc4oc(C(=O)O)cc(=O)c34)cccc2o1
inactive: dose: 100.0 mg/kg/injection, schedule: Q01DX001 (ip), vehicle: saline 100 % of control | dose: 200.0 mg/kg/injection, schedule: Q01DX001 (ip), vehicle: saline 102 % of control | dose: 400.0 mg/kg/injection, schedule: Q01DX001 (ip), vehicle: saline 94 % of control

From PubChem BioAssay AID248 (DTP/NCI, 2004)
